The source of these data is US20040014676A1, “SRC kinase inhibitors useful for treating osteoporosis” (priority 2001, published 2004).

As a reminder, the IC50 is the concentration that inhibits the measured activity by half.

The target in the first assay is T1, Src kinase (Homo sapiens, UniProt P12931).
T1 construct: purchased Upstate Bioteolnology (sic; Upstate Biotechnology); later HMR stock 27597-019E1 #14-117
T1 sequence (P12931 whole entry): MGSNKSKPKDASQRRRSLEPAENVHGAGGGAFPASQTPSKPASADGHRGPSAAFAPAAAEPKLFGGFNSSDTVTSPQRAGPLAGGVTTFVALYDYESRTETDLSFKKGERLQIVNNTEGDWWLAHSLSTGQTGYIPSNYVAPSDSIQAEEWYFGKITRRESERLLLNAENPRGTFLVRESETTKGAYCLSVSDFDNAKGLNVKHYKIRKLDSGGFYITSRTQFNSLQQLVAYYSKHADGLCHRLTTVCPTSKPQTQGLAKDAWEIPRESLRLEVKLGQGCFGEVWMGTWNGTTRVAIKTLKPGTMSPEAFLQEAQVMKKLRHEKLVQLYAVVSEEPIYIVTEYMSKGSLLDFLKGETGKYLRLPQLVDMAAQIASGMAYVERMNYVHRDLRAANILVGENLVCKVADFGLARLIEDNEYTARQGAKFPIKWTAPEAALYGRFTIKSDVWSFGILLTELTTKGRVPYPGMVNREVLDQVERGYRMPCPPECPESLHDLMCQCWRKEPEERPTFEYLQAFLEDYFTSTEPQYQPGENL
The assay is described as follows: Phosphorylation assay of Src kinase inhibitors (radiometric, 96 well filter plate). Type of assay: biochemical. As to conditions: IC50, duplicates, tested in the range of 400-0.098 µM; 10 µM peptide substrate (FIYGAFKKKKNH2), 5 µM unlabeled ATP, room temperature 30 min. An outline of the steps:
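Radiometric filter-plate assay: Src kinase (1:100 dilution) was incubated with 10 μM peptide FIYGAFKKK-NH2, 5 μM unlabeled ATP and radiolabeled ATP for 30 min at room temperature. Reactions were stopped with 150 mM H3PO4, the peptide was captured on phosphocellulose and scintillation counted. Ki values were determined for some compounds.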
Regarding `NC(=O)CNC(=O)c1cc2ccccc2cc1OCCNC(=O)[C@@H](N)Cc1ccc(O)cc1` [Example 92, 3-[2-[[[1-OXO-2(S)-AMINO-3-HYDROXY- PHENYL)]PROPYL]AMINO]ETHOXY]NAPHTHALENE-2-(N-], the midpoint of inhibition, the IC50, lay at 3.4 µM.

The assay is the same for the next values; noted with them: duplicates, tested in the range of 400-0.098 µM; 10 µM peptide substrate (FIYGAFKKKKNH2), 5 µM unlabeled ATP, room temperature 30 min; read-out: IC50.
As to `NC(=O)CC[C@H](N)C(=O)NCCCCOc1cc2ccccc2cc1C(=O)NCC(N)=O` [Example 70, 3-[4-[[(1-OXO-2(S)-AMINO-4-AMINO- CARBONYL)BUTYL]AMINO]BUTOXY]- NAPHTHALENE-2-(N-ACETAMIDO)- CARBOXAMIDE], the 50% inhibitory concentration (IC50) turned out to be 370 µM.

`NC(=O)CNC(=O)c1cc2ccccc2cc1OCCCCNC(=O)CNCc1cccc2ccccc12` [Example 71]: the IC50 worked out at 6 µM.

With `NC(=O)CNC(=O)c1cc2ccccc2cc1OCCCCNC(=O)[C@H](Cc1ccc(O)cc1)NC=O` [Example 72, 3-[4-[[[1-OXO-2-(N-FORMYLAMINO)-3- (4-HYDROXYPHENYL)]PROPYL]- (S)AMINO]BUTOXY]-NAPHTHALENE- 2-(N-ACETAMIDO)CARBOXAMIDE], the IC50 was 6 µM.

With `N=C(N)N[C@@H](Cc1ccc(O)cc1)C(=O)NCCCCOc1cc2ccccc2cc1C(=O)NCC(N)=O` [Example 73, 3-[4-[[[(1-OXO-2-[(N-AMINOIMINO- METHYL)(S)AMINO]-3-(4-HYDROXY- PHENYL)]PROPYL]AMINO]BUTOXY]- NAPHTHALENE-2-(N-ACETAMIDO)- CARBOXAMIDE], the 50% inhibitory concentration (IC50) was determined as 6 µM.

With `NCC(=O)N[C@@H](Cc1ccc(O)cc1)C(=O)NCCCCOc1cc2ccccc2cc1C(=O)NCC(N)=O` [Example 74, 3-[4-[[[(1-OXO-2-[(N-AMINOMETHYL- CARBONYL)(S)AMINO]3-(4-HYDROXY- PHENYL)]PROPYL]AMINO]BUTOXY]- NAPHTHALENE-2-(N-ACETAMIDO)- CARBOXAMIDE], the IC50 came out at 25 µM.

In the case of `NC(=O)CNC(=O)c1cc2ccccc2cc1OCCCCN1CCC[C@@H](c2ccccc2)[C@H](N)C1=O` [Example 76, 3-[4-[(2-OXO-3(R)-AMINO-4(S)- PHENYL)HEXAMETHYLENEIMIN-1- YL]BUTOXY]-NAPHTHALENE-2-(N- ACETAMIDO)CARBOXAMIDE], the IC50 stood at 6 µM.

`NC(=O)CNC(=O)c1cc2ccccc2cc1OCCCCN1CCC[C@H](c2ccccc2)[C@H](N)C1=O` [Example 77, 3-[4-[(2-OXO-3(R)-AMINO-4(R)- PHENYL)HEXAMETHYLENEIMIN-1- YL]BUTOXY]-NAPHTHALENE-2-(N- ACETAMIDO)CARBOXAMIDE]: the IC50 was 6 µM.

As to `C[C@H](c1ccc(O)cc1)[C@H](N)C(=O)NCCCCOc1cc2ccccc2cc1C(=O)NCC(N)=O` [Example 78, 3-[4-[[[(1-OXO-2-AMINO-3(R)-METHYL- 3-(4-HYDROXY)PHENYL)]PROPYL]- AMINO]BUTOXY]-NAPHTHALENE-2- (N-ACETAMIDO)CARBOXAMIDE], the IC50 came out at 6 µM.

For the compound `C[C@@H](c1ccc(O)cc1)[C@H](N)C(=O)NCCCCOc1cc2ccccc2cc1C(=O)NCC(N)=O` [Example 79, 3-[4-[[[(1-OXO-2(S)-AMINO-3(R)- METHYL-3-(4-HYDROXYPHENYL)]- PROPYL]AMINO]BUTOXY]- NAPHTHALENE-2-(N-ACETAMIDO)- CARBOXAMIDE], the IC50 was 6 µM.

On to `NC(=O)CNC(=O)[C@@H](Cc1ccccc1)NCCCCCNC(=O)[C@H](N)Cc1csc2ccccc12` [Example 80, N-[((R)BENZYL)[(AMINO)(CARBONYL) (METHYL)(AMINO)(CARBONYL)]- METHYL]-5-[[N-[1-OXO-2- AMINO-3-(R)(BENZOTHIOPHEN-3-YL)]PROPYL]AMINO]PENTYLAMINE], for which the IC50 was 6 µM.

As to `NC(=O)CNC(=O)[C@H](Cc1ccccc1)NCCCCCNC(=O)[C@H](N)Cc1csc2ccccc12` [Example 81, N-[((S)BENZYL)[(AMINO)(CARBONYL)- (METHYL)(AMINO)(CARBONYL)]- METHYL]-5-[[N-[1-OXO-2-AMINO-3- (R)(BENZOTHIOPHEN-3- YL)]PROPYL]AMINO]PENTYLAMINE], the concentration for half-maximal inhibition (IC50) stood at 6 µM.

As for `NC(=O)CNC(=O)[C@@H](Cc1cccc2ccccc12)NCCCCCNC(=O)[C@H](N)Cc1csc2ccccc12` [Example 82, N-[((R)NAPHTH-1-YL)[(AMINO)- (CARBONYL)(METHYL)(AMINO)- (CARBONYL)]METHYL]-5-[N-[[N-[1- OXO-2-AMINO-3-(R)(BENZOTHIOPHEN- 3-YL)]PROPYL]AMINO]PENTYLAMINE], the IC50 was determined as 6 µM.

Consider `NC(=O)CNC(=O)c1cc2ccccc2cc1C(=O)NCCCNC(=O)[C@@H](N)Cc1ccc(O)cc1` [Example 89, 3-[[[3-[[[1-OXO-2(S)-AMINO-3- HYDROXYPHENYL)]PROPYL]AMINO]- PROPYL]AMINO]CARBONYL]- NAPHTHALENE-2-ACETAMIDO)- CARBOXAMID], for which the concentration for half-maximal inhibition (IC50) was 252 µM.

For `NC(=O)CNC(=O)c1cc2ccccc2cc1NC(=O)CCCNC(=O)[C@@H](N)Cc1ccc(O)cc1` [Example 90, 3-[[[3-[[[1-OXO-2(S)-AMINO-3- HYDROXYPHENYL)]PROPYL]AMINO]- PROPYL]CARBONYL]AMINO]- NAPHTHALENE-2-ACETAMIDO)- CARBOXAMID], the IC50 is 209 µM.

As to `NC(=O)CNC(=O)c1cc2ccccc2cc1OCCCNC(=O)[C@@H](N)Cc1ccc(O)cc1` [Example 93, 3-[5-[[[1-OXO-2(S)-AMINO-3-(4- HYDROXYPHENYL)]PROPYL]AMINO]- PROPYLOXY]NAPHTHALENE-2-(N- ACETAMIDO)CARBOXAMIDE], the IC50 was determined as 45 µM.

On to `NC(=O)CNC(=O)c1cc2ccccc2cc1OCCCCCNC(=O)[C@@H](N)Cc1ccc(O)cc1` [Example 94, 3-[5-[[[1-OXO-2(S)-AMINO-3-(4- HYDROXYPHENYL)]PROPYL]AMINO]- PENTOXY]NAPHTHALENE-2-(N- ACETAMIDO)CARBOXAMIDE], for which the IC50 was 6.6 µM.

`NC(=O)CNC(=O)c1cc2ccccc2cc1OCCCCCCNC(=O)[C@@H](N)Cc1ccc(O)cc1` [Example 95, 3-[6-[[[1-OXO-2(S)-AMINO-3-(4- HYDROXYPHENYL)]PROPYL]AMINO]- HEXOXY]NAPHTHALENE-2-(N- ACETAMIDO)CARBOXAMIDE]: the IC50 amounted to 7.1 µM.

On to `NC(=O)CNC(=O)c1cc2ccccc2cc1OCc1cccc(NC(=O)[C@@H](N)Cc2ccc(O)cc2)c1` [Example 96, 3-[3-[[[1-OXO-2(S)-AMINO-3-(4- HYDROXYPHENYL)]PROPYL]AMINO]- BENZYLOXY]NAPHTHALENE-2-(N- ACETAMIDO)CARBOXAMIDE], for which the half-maximal inhibitory concentration (IC50) was determined as 7.1 µM.

As to `NC(=O)CNC(=O)c1cc2ccccc2cc1OCCCC(NC(=O)[C@H](N)Cc1csc2ccccc12)C(=O)O` (stereo partly drawn) [Example 97, 3-[[4-[[1-OXO-2(S)-AMINO-3-(BENZO- THIOPHEN-3-YL)]PROPYL]AMINO][4- CARBOXY]BUTOXY]NAPHTHALENE-2- (N-ACETAMIDO)CARBOXAMIDE], the IC50 was found to be 26 µM.

For `C=CCOC(=O)C(CCCOc1cc2ccccc2cc1C(=O)NCC(N)=O)NC(=O)[C@H](N)Cc1csc2ccccc12` (stereo partly drawn) [Example 98, 3-[[4-[[1-OXO-2(S)-AMINO-3-(BENZO- THIOPHEN-3-YL)]PROPYL]AMINO][4- ACRYLOXYCARBOXY]BUTOXY]NAPHTHALENE-2-(N-ACETAMIDO)- CARBOXAMIDE], the IC50 worked out at 2.5 µM.

`N[C@@H](Cc1ccc(O)cc1)C(=O)NCCCCOc1cc2ccccc2cc1C(=O)NCC(=O)NCCCO` [Example 99, 3-[[4-[[1-OXO-2(S)-AMINO-3-(4- HYDROXYPHENYL)]PROPYL]AMINO]- BUTOXY]NAPHTHALENE-2-[N-[[[[3- HYDROXYPROPYL]AMINO]- CARBONYL]METHYL]]CARBOXAMIDE]: the IC50 came to 0.49 µM.

For `N[C@@H](Cc1ccc(O)cc1)C(=O)NCCCCOc1cc2ccccc2cc1C(=O)NCCO` [Example 101, 3-[[4-[[1-OXO-2(S)-AMINO-3-(4- HYDROXYPHENYL)]PROPYL]AMINO]- BUTOXY]NAPHTHALENE-2-[N- (2-HYDROXYETHYL)]CARBOXAMIDE], the IC50 is 15 µM.

Turning to `NC(=O)CCNC(=O)c1cc2ccccc2cc1OCCCCNC(=O)[C@@H](N)Cc1ccc(O)cc1` [Example 102], the IC50 amounted to 52 µM.

`NC(=O)CNC(=O)c1cc2cc(Br)ccc2c(Br)c1OCCCCNC(=O)[C@@H](N)Cc1ccc(O)cc1` [Example 105, 1,6-DIBROMO-2-[[4-[[1-OXO-2(S)- AMINO-3-(4-HYDROXYPHENYL)]- PROPYL]AMINO]BUTOXY]- NAPHTHALENE-3-(N-ACETAMIDO)- CARBOXAMIDE]: the IC50 was found to be 20 µM.

On to `COc1ccc2cc(OCCCCNC(=O)[C@@H](N)Cc3ccc(O)cc3)c(C(=O)NCC(N)=O)cc2c1` [Example 106, 3-[[4-[[2(S)-AMINO-3-(4-HYDROXY- PHENYL)-1-OXOPROPYL]AMINO]- BUTOXY]-7-METHOXY- NAPHTHALENE-2-[N-ACETAMIDO]- CARBOXAMIDE], for which the IC50 was 2.5 µM.

In the case of `N[C@@H](Cc1ccc(O)cc1)C(=O)NCCCCOc1ccc2ccccc2c1C(=O)NCC(=O)NCCCO` [Example 117, 2-[[4-[[1-OXO-2(S)-AMINO-3-(4- HYDROXYPHENYL)]PROPYL]AMINO]BUTOXY]NAPHTHALENE-1-[N-[[(3- HYDROXYPROPYLAMINO)- CARBONYL]METHYL]]CARBOXAMIDE], the half-inhibitory concentration (IC50) was 47 µM.

In the case of `NC(=O)CNC(=O)c1cc2ccccc2cc1OCc1ccc(N)cc1` [Example 119, 2-[4-AMINOBENZYLOXY]- NAPHTHALENE-3-[N-ACETAMIDO]- CARBOXAMIDE], the half-maximal inhibitory concentration (IC50) is 25 µM.

Consider `CNC(=O)C(Cc1ccc(C#N)cc1)C(=O)NCCCCOc1cc2ccccc2cc1C(=O)NCC(N)=O` (stereo not drawn) [Example 124, N-(4-{3-[N-(carbamoylmethyl)carbamoyl](2-naphthyloxy)}butyl)-2RS-[(4-cyanophenyl)methyl]-N′-methylpropane-1,3-diamide], for which the IC50 came out at 6 µM.

In the case of `NC(=O)CNC(=O)c1cc2ccccc2cc1/N=C(/OCCCCNC(=O)C(N)Cc1ccc(O)cc1)C(F)(F)F` (stereo not drawn) [Example 127, 3-[[1-TRIFLUOROMETHYL][1-[4-[[[1- OXO-2-AMINO-3-HYDROXYPHENYL)]- PROPYL]AMINO]BUTOXY]]- METHYLENIMINO]-NAPHTHALENE-2- [N-ACETAMIDO]CARBOXAMIDE], the IC50 came to 19 µM.
